Laboratory results reported in publication PMC9318133 (International Journal of Molecular Sciences, 2022).

Key:
mouse CB1 receptors = target: T1, mouse CB1 receptors (Mus musculus, UniProt P47746); parameters: method as in PMID 27527584, PMID 25769232; conditions: read-out: Mouse Cortex Membranes CB1 Ki; [3H]-CP-55,940 competition binding; mean ± SEM; data elaborated from ref [15],[33]; cited from earlier work
T1 construct: membranes from the mouse brain and spleen were used, respectively; from tissue
T1 sequence (P47746 whole entry): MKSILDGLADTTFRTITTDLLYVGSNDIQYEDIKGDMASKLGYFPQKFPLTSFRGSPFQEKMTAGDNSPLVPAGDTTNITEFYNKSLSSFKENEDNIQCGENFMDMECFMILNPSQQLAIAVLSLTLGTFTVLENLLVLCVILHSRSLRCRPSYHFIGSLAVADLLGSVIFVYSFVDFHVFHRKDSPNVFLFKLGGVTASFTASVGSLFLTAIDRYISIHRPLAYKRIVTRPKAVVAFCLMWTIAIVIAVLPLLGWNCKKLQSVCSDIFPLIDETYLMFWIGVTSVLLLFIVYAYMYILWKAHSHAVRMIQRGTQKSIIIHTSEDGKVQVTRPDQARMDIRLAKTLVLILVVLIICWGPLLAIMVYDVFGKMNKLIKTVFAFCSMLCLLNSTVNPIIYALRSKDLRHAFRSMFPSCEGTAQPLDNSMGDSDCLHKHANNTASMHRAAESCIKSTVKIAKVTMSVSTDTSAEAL

CD-1 mice [1] = tested on: CD-1 mice; parameters: method as in PMID 25769232, PMID 25987201; conditions: ED50 + SEM, data elaborated from ref [33],[34]; cited from earlier work
human CB2 receptors = target: T2, human CB2 receptors (Homo sapiens, UniProt P34972); parameters: method as in PMID 27527584, PMID 25769232; conditions: read-out: hCB2 CHO Cells IC50; cyclic AMP experiments; mean ± SEM; data elaborated from ref [15],[33]; cited from earlier work
T2 construct: host or cells: CHO cells
T2 sequence (P34972 whole entry): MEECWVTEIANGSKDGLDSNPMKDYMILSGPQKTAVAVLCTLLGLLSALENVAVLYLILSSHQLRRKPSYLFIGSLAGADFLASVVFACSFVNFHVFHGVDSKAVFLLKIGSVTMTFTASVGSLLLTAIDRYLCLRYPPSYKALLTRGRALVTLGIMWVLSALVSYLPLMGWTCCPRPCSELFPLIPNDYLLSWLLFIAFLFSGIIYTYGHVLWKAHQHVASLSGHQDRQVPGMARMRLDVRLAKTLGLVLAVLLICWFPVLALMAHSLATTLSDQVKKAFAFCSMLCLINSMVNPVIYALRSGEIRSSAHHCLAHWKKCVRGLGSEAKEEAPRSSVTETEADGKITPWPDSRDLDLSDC

CD-1 mice [2] = assay: Breath rate evaluation; type: in vivo, mouse
human CB1 receptors = target: T3, human CB1 receptors (Homo sapiens, UniProt P21554); assay: Cyclic AMP assay (forskolin-stimulated) in CHO cells transfected with human CB1 receptors; type: cell-based
T3 construct: host or cells: CHO cells
T3 sequence (P21554 whole entry): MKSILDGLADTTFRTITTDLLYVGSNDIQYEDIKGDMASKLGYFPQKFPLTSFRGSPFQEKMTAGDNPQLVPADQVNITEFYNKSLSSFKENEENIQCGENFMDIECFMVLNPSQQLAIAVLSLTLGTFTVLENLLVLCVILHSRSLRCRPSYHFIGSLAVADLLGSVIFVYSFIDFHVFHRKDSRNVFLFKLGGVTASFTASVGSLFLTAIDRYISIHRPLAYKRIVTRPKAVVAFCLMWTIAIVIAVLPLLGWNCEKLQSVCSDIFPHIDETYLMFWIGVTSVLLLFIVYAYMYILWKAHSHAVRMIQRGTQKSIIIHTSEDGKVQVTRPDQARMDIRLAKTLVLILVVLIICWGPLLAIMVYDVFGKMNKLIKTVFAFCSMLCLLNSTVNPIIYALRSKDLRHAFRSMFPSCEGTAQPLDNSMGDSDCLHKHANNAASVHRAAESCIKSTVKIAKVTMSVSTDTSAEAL
Experimental: Chinese hamster ovarian (CHO) cells transfected with human CB1 or CB2 receptors (Perkin Elmer Life and Analytical Sciences, Melville, NY, USA) were grown adherently and maintained in Ham’s F12 containing 10% fetal bovine serum, penicillin (100 U/mL), streptomycin (100 µg/mL), and Geneticin (G418, 0.4 mg/mL) at 37 °C in 5% CO2/95% air. To obtain membranes, cells were washed with phosphate-buffered saline (PBS) and scraped off with ice-cold hypotonic buffer (5 mM Tris HCl, 2 mM EDTA, pH 7.4). The cell suspension was homogenized with a Polytron and then centrifuged for 30 min at 40,000× g. […]
The protein concentration was determined according to a Bio-Rad method with bovine serum albumin as a reference standard. Inhibitory binding constants, Ki, were calculated from the IC50 values according to the Cheng and Prusoff equation:Ki = IC50/(1 + [C*]/KD*) where [C*] is the concentration of the radioligand and KD* its dissociation constant. Functional experiments were analyzed by non-linear regression analysis using the equation for a sigmoid concentration–response curve (GraphPad Prism, San Diego, CA, USA). All the data are expressed as the mean ± SEM of three independent experiments.

CD-1 mice [3] = assay: Visual object response test; type: in vivo, mouse
CD-1 mice [4] = assay: Drag test (number of steps); type: in vivo, mouse
CD-1 mice [5] = assay: Tail pinch test (acute mechanical nociception); type: in vivo, mouse
Experimental: The motor responses of the animal to different visual and acoustic stimuli were evaluated according to the procedure described in our previous studies. To reduce the number of animals used, mice were evaluated in functional observational tests carried out in a consecutive manner according to the following time scheme: Observation of visual object and acoustic responses and breath rate were measured at 0, 10, 30, 60, 120, 180, 240, and 300 min after injections. Visual placing response was measured at 0, 15, 35, 70, 125, 185, 245, and 305 min after injection. Core temperature was measured at 25, 45, 85, 140, 200, 260, and 320 min after injection. The tail pinch test was measured at 35, 55, 90, 145, 205, 265, and 325 min after injection, and the valuation of number of steps in the drag test was measured at 45, 75, 105, 160, 220, 280, and 340 min after injection.
The tail pinch test is used for evaluating acute mechanical nociception. A special rigid probe connected to a digital dynamometer (ZP-50N, 441-8077, Toyohashi, Aichi, Japan) was gently placed on the tail (in the distal portion), and progressive pressure was applied. When the […] flicked its tail, the pressure was stopped, and the digital instrument saved the maximum peak of weight supported (g/force). A cut-off (500 g/force) was set to avoid tissue damage. The test was repeated three times, and the final value was calculated with the average of three obtained scores.
Data are expressed in arbitrary units (visual objects and acoustic responses) and percentage of baseline (visual placing response, breath rate, and drag test). Core temperature values were expressed as the difference between control temperature (before injection) and temperature following drug administration (Δ °C). Antinociception (tail pinch tests) was calculated as percentage of maximal possible effect:EMax% = [(test − control latency)/(cut off time − control)] × 100
All data are shown as mean ± SEM of 8 independent experimental replications. […] ED50 (dose of agonist to obtain 50% of the overall mean effect) values were calculated by non-linear regression analysis of dose–response data performed using Prism software (GraphPad Prism, San Diego, CA, USA). The calculation of JWH-018 ED50 values was based on the results of previous studies. Curves have been compared, when possible, performing the F test (curve comparison). All statistical analysis was performed using the program Prism 8.0 software (GraphPad Prism, San Diego, CA, USA).

CD-1 mice [6] = assay: Visual placing response test; type: in vivo, mouse
CD-1 mice [7] = assay: Acoustic response (startle reflex) test; type: in vivo, mouse
[8] = 0.01–30 mg/kg i.p., monitored over 5 h
[9] = Mus musculus, ip, mice, ED50 + SEM

SMILES: CCCCCn1cc(C(=O)c2cccc3ccccc23)c2ccccc21 [JWH-018, 1-naphthalenyl(1-pentyl-1H-indol-3-yl)-methanone]
- Ki (mouse CB1 receptors): 0.00582 ± 0.00044 µM
- ED50 Visual Placing (CD-1 mice [1]): 0.7 ± 0.06 mg/kg
- IC50 (human CB2 receptors): 0.0116 ± 0.00097 µM

SMILES: CCCCCn1cc(Cc2cccc3ccccc23)c2ccccc21 [JWH-175, 3-(1-naphthalenylmethyl)-1-pentyl-1H-indole]
- effect on breath rate (CD-1 mice [2]; [8]): dose-dependently reduced the breath rate
- ED50 (CD-1 mice [2]; [9]): 1.7 ± 0.15 mg/kg
- dose at which inhibitory effect on breath rate was significant (CD-1 mice [2]; i.p., after 120 min, persisted up to 5 h): 0.1 mg/kg
- IC50 (human CB1 receptors): 0.072 ± 0.005 µM
- effect on visual object response (CD-1 mice [3]; [8]): dose-dependently reduced the visual object response
- ED50 (CD-1 mice [3]; Mus musculus, ip, mice, ED50 + SEM, non-linear regression): 9.6 ± 0.02 mg/kg
- effect on motor activity in the drag test at low dose (CD-1 mice [4]; 0.1 mg/kg i.p., lasted up to 280 min): facilitated
- effect on motor activity in the drag test at higher doses (CD-1 mice [4]; 6–30 mg/kg i.p.): inhibited
- ED50 (CD-1 mice [4]; Mus musculus, ip, mice, ED50 + SEM, calculated on inhibitory effect of the highest doses): 10.9 ± 0.12 mg/kg
- effect on threshold to acute mechanical pain stimulus (tail pinch) (CD-1 mice [5]; [8]): dose-dependently increased the threshold to acute mechanical pain stimulus
- ED50 (CD-1 mice [5]; [9]): 4 ± 0.12 mg/kg
- lowest dose from which increased pain threshold to acute mechanical stimulus was observed (CD-1 mice [5]; i.p.): 0.1 mg/kg
- time of maximum analgesic effect (tail pinch) (CD-1 mice [5]; maximum dose of 30 mg/kg i.p.): 265 min
- effect on visual placing response (CD-1 mice [6]; [8]): dose-dependently reduced the visual placing response
- ED50 (CD-1 mice [6]; [9]): 5.2 ± 0.08 mg/kg
- lowest dose tested with significant inhibitory effect on visual placing response (CD-1 mice [6]; i.p.): 0.01 mg/kg
- effect on acoustic response (CD-1 mice [7]; [8]): dose-dependently reduced
- ED50 (CD-1 mice [7]; [9]): 4 ± 0.03 mg/kg
